Reference: PubChem BioAssay (NCI)
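Exposure lasted 48 hours, with cells grown in 96-well plates and compounds tested at five concentrations. Abbreviation: GI50, concentration required for 50% inhibition of growth. TGI denotes the concentration required for complete inhibition of growth.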

Key:
Experiment in all cases: growth of human tumour cells (NCI), 48 h
[1] = tested on: HS 578T breast
[2] = tested on: IGROV1 ovarian
[3] = tested on: OVCAR-5 ovarian
[4] = tested on: A498 renal
[5] = tested on: CAKI-1 renal
[6] = tested on: SK-MEL-5 melanoma
[7] = tested on: OVCAR-4 ovarian
[8] = tested on: NCI-H226 lung
[9] = tested on: SN12C renal
[10] = tested on: M14 melanoma

SMILES | TGI [1] [µM] | TGI [2] [µM] | TGI [3] [µM] | TGI [4] [µM] | TGI [5] [µM] | TGI [6] [µM] | TGI [7] [µM] | TGI [8] [µM] | TGI [9] [µM] | TGI [10] [µM] | GI50 [1] [µM] | GI50 [2] [µM] | GI50 [3] [µM] | GI50 [4] [µM] | GI50 [5] [µM] | GI50 [6] [µM] | GI50 [7] [µM] | GI50 [8] [µM] | GI50 [9] [µM] | GI50 [10] [µM]
Cc1cccc(CNc2ncnc3[nH]ncc23)c1 | > 100 | > 100 | > 100 | > 100 | > 100 | > 100 | > 100 | > 100 | > 100 | > 100 | – | – | – | – | – | – | – | – | – | –
C=C[C@]1(O[Si](C)(C)C)C[C@@]2(C(=O)OCC)C(O)C(=O)N3CCc4cc(OC)c(OC)cc4[C@]312 (some centres undefined) | > 100 | > 100 | > 100 | > 100 | > 100 | > 100 | > 100 | > 100 | > 100 | > 100 | – | – | – | – | – | – | – | – | – | –
O=C1c2ccccc2C(=O)c2c1cc1c(c2[N+](=O)[O-])OCO1 | 6.02 | 7.62 | 8.74 | 2.38 | 4.51 | 11.7 | 4.85 | 7.16 | 8.05 | 16.9 | 2.28 | 1.21 | 2.39 | 0.0824 | 0.556 | 3.48 | 1.2 | 2.06 | 1.73 | 3.78
O=S(=O)(O)c1ccc2cc(N=Nc3c(O)ccc4ccccc34)ccc2c1 | > 100 | > 100 | > 100 | > 100 | > 100 | > 100 | > 100 | > 100 | > 100 | > 100 | – | – | – | – | – | – | – | – | – | –
BrCc1ccc(CBr)c2c1-c1c(CBr)ccc3ccc(CBr)c-2c13 | > 100 | > 100 | > 100 | > 100 | – | – | > 100 | > 100 | > 100 | > 100 | – | – | – | – | – | – | – | – | – | –
C=CCNC(=O)CN(CC(=O)O)C1CCCCC1N(CC(=O)O)CC(=O)O (centres undefined) | > 100 | > 100 | > 100 | > 100 | > 100 | > 100 | > 100 | > 100 | > 100 | – | – | – | – | – | – | – | – | – | – | –
O=c1[nH]c(=O)n(C2C(CO)OC(CO)C2O)cc1F (centres undefined) | > 100 | > 100 | > 100 | > 100 | > 100 | > 100 | > 100 | > 100 | > 100 | > 100 | – | – | – | – | – | – | – | – | – | –
O=C(O)CC12CC3CC(CC(O)(C3)C1)C2 | 59.9 | > 100 | > 100 | > 100 | > 100 | > 100 | > 100 | > 100 | > 100 | > 100 | – | – | – | – | – | – | – | – | – | –
COC(=O)[C@@]1(NC(=O)C(CC(=O)OC(C)(C)C)NC(=O)OC(C)(C)C)C[C@H]1C (some centres undefined) | > 100 | > 100 | > 100 | > 100 | > 100 | > 100 | > 100 | > 100 | > 100 | > 100 | – | – | – | – | – | – | – | – | – | –
COc1cccc(C(NC2=NCCC=N2)c2cc3c(cc2O)OCO3)c1O (centres undefined) | 79.7 | > 100 | > 100 | 78.8 | > 100 | > 100 | – | > 100 | 41.4 | > 100 | – | – | – | – | – | – | – | – | – | –
c1cncc(CSc2ncnc3nc[nH]c23)c1 | > 100 | > 100 | > 100 | > 100 | > 100 | > 100 | > 100 | > 100 | > 100 | > 100 | – | – | – | – | – | – | – | – | – | –
CCCC(=O)OCOC(=O)N(C)N=Nc1ccc(C(=O)OCC)cc1 | 85.7 | > 100 | > 100 | > 100 | > 100 | > 100 | > 100 | > 100 | 76.7 | > 100 | – | – | – | – | – | – | – | – | – | –
O=C(NCCCCCCCN1CCCCCCC1)C(C1CCCCC1)C1CCCCC1 | 51.5 | 27.3 | 23.2 | 15.5 | 20.6 | 5.51 | 25.4 | 23.5 | 26.9 | 3.97 | – | – | – | – | – | – | – | – | – | –
O=[N+]([O-])C(=C/c1cccc2ccccc12)/C(=C\c1cccc2ccccc12)[N+](=O)[O-] | 17.1 | 4.13 | 12.3 | 33.5 | 4.68 | 6.45 | 7.06 | 13.7 | 6.55 | 11.3 | – | – | – | – | – | – | – | – | – | –
CCCCN(C)C(=O)C1=C(C)NC(C)=C(C(=O)N(C)CCCC)C1 | > 100 | > 100 | > 100 | > 100 | > 100 | > 100 | > 100 | > 100 | > 100 | > 100 | – | – | – | – | – | – | – | – | – | –
Cc1ccc(/C=C2\Cc3cc(C)c(C)cc3C2=O)c(C(=O)O)c1 | > 100 | > 100 | – | 61.3 | > 100 | > 100 | – | 89.1 | > 100 | – | – | – | – | – | – | – | – | – | – | –
COc1ccc(NC(=O)C(=O)Cc2nc3ccc(C(=O)c4ccccc4)cc3[nH]c2=O)c([N+](=O)[O-])c1 | > 100 | 60.7 | > 100 | 54.8 | > 100 | 68.8 | > 100 | 39.8 | > 100 | > 100 | – | – | – | – | – | – | – | – | – | –
COC1=C2CC(C)CC(OC)C(OC(=O)CCCN)C(C)/C=C(\C)C(OC(N)=O)C(OC)/C=C\C=C(/C)C(=O)NC(=CC1=O)C2=O (centres undefined) | 40.7 | 18.6 | 23.8 | 30.6 | 23.3 | 22.4 | 20.4 | 33.3 | 16.1 | 17.6 | – | – | – | – | – | – | – | – | – | –
S=C(N/N=C/c1ccccn1)N1CCCCCC1 | > 100 | – | > 54.2 | 0.735 | – | 1.18 | 37 | 1.94 | 0.359 | 0.251 | – | – | – | – | – | – | – | – | – | –
NC(=O)c1sc2nc3ccccc3n2c1N | > 100 | > 100 | > 100 | > 100 | > 100 | > 100 | > 100 | > 100 | – | > 100 | – | – | – | – | – | – | – | – | – | –
N#Cc1c(-c2ccccc2)cc(-c2ccccc2)n(C2OCC(O)C(O)C2O)c1=S (centres undefined) | > 100 | 33.5 | 58.5 | 64.2 | 61.5 | 27.9 | 70.6 | 35.9 | – | 53.3 | – | – | – | – | – | – | – | – | – | –
